From paper PMC6990627 (ACS Omega, 2020)
Several values for one entry are separate records, joined by “and”; a condition that tells them apart may be missing. Identical values can stand only once. Counter-ions that a name gives are not always drawn. Like-named read-outs stand apart in the source and are kept apart here.

What was measured:
eqBChE [1] = biological target: T1, eqBChE (Equus caballus, UniProt P81908); assay: Ellman assay, eqBChE inhibition; type: biochemical, equine; conditions: screened at 10 and 100 μM
AChE = conditions: read-out: AChE IC50, cited from earlier work
EeAChE = EeAChE (Electrophorus electricus, UniProt O42275); assay: Ellman assay, EeAChE inhibition; type: biochemical; conditions: average of three determinations
eqBChE [2] = biological target: T1, eqBChE; assay: Enzyme kinetics; type: biochemical, equine; conditions: Lineweaver-Burk plot

T1 sequence (P81908 whole entry): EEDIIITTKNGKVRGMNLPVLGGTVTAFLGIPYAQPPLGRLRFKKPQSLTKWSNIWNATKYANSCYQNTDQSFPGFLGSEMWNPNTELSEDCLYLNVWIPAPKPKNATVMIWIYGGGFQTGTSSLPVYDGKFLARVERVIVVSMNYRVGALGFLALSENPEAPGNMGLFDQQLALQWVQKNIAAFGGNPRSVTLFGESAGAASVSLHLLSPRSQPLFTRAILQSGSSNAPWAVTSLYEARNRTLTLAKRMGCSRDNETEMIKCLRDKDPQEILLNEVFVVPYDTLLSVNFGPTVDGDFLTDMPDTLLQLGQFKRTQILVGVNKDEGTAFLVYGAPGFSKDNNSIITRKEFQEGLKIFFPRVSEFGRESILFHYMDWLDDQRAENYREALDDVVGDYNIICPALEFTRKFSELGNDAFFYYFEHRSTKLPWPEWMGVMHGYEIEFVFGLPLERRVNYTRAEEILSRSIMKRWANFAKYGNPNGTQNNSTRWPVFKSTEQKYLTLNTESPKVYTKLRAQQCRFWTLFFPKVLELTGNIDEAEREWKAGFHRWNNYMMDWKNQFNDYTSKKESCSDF
Sequence of EeAChE (O42275 24-633): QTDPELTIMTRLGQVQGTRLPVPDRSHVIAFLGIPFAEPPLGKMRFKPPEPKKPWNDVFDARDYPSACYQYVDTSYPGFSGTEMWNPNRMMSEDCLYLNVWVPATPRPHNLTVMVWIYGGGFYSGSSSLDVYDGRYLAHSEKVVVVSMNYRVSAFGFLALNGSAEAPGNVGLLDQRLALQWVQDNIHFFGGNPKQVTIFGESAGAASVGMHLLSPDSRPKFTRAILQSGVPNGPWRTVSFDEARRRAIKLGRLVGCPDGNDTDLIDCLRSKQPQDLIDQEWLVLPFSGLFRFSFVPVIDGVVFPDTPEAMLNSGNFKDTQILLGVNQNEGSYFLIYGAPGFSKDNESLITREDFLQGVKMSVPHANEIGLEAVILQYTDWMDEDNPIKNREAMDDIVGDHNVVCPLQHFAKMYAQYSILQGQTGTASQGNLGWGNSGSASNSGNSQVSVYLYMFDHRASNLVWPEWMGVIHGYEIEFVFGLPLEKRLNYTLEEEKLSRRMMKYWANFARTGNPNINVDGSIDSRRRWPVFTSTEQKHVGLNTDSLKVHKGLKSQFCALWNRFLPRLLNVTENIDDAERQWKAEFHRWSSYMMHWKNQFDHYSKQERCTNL

SMILES	activity against BChE (in words) (eqBChE [1])	IC50 (AChE; ref 19) [µM]	IC50 (AChE; ref 20) [µM]	IC50 (EeAChE)	type of inhibition, eqBChE (eqBChE [2])
Cc1cc(O)c2c(c1)C(=O)c1cccc(O)c1C2=O [chrysophanol]	weakly active	68.6	75.8	34 µM and 33.7 µM	
COc1cc2c(cc1OC)C(=O)C(CC1CCN(Cc3ccccc3)CC1)C2 (stereo not drawn) [donepezil HCl, donepezil hydrochloride]					noncompetitive
Cc1cc(O)c2c(c1)C(=O)c1cc(O)cc(O)c1C2=O [emodin]	weakly active	9.17	21.8	15 µM and 15.2 µM	
COc1cc(O)c2c(c1)C(=O)c1cc(C)cc(O)c1C2=O [physcion]	weakly active	8.25		12 µM and 12.2 µM	
